Source: patent US20230146455A1, “TREATMENT OF INFLAMMATORY DISEASES WITH PEPTIDES AND PHARMACEUTICAL COMPOSITIONS” (Yuyu Pharma, Inc., priority 2020, published 2023)
Several values for one entry are separate records, joined by “and”; a condition that tells them apart may be missing. Equal values may be shown once. Where a SMILES comes first, the peptide text is derived from it. [ ]: non-standard residue; d: D form. Hyp = O=C(O)[C@@H]1C[C@@H](O)CN1

Assays:
TNF-alpha = assay: Example 9 Luminex, LPS hPBMCs: TNF-alpha; assay type: cell-based, human
Protocol: (§1) Treatment Human PBMCs were pretreated with YY-101, YDE-011 and YDE-043 or reference compound; Xiidra® at various concentration (ranging from 1 nM to 100 uM) for 2 h before stimulation. An equal volume of 0.5% DMSO was used as a vehicle control. Then, the cells were treated with LPS at 5 ug/ml. The supernatants from treated cells were harvested at 24 h and placed in a 96 well for Luminex cytokine & chemokine profiling using a Luminex 200 multiplex assay (Luminex; R&D system, USA).
(§2) The main study arm with triplicate wells per group in a 24-well plate: • 1. Blank • 2. PBMC: 0.5% DMSO • 3. PBMC+LPS (5 ug/ml) • 4. PBMC+YY-101 100 uM • 5. PBMC+YY-101 10 uM • 6. PBMC+YY-101 1 uM • 7. PBMC+YY-101 0.1 uM • 8. PBMC+YY-101 0.01 uM • 9. PBMC+LPS (5 ug/ml)+Xiidra®100 uM • 10. PBMC+LPS (5 ug/ml)+Xiidra® 10 uM • 11. PBMC+LPS (5 ug/ml)+Xiidra® 1 uM • 12. PBMC+LPS (5 ug/ml)+Xiidra®0.1 uM • 13. PBMC+LPS (5 ug/ml)+Xiidra®0.01 uM • 14. PBMC+LPS (5 ug/ml)+Xiidra®0.001 uM • 15. PBMC+LPS (5 ug/ml)+YY-101 100 uM • 16. PBMC+LPS (5 ug/ml)+YY-101 10 uM • 17. PBMC+LPS (5 ug/ml)+YY-101 1 uM • 18. PBMC+LPS (5 ug/ml)+YY-101 0.1 uM • 19. PBMC+LPS (5 ug/ml)+YY-101 0.01 uM • 20. PBMC+LPS (5 ug/ml)+YY-101 0.001 uM • 21. PBMC+LPS (5 ug/ml)+YDE-011 100 uM • 22. PBMC+LPS (5 ug/ml)+YDE-011 10 uM • 23. PBMC+LPS (5 ug/ml)+YDE-011 1 uM • 24. PBMC+LPS (5 ug/ml)+YDE-011 0.1 uM • 25. PBMC+LPS (5 ug/ml)+YDE-011 0.01 uM • 26. PBMC+LPS (5 ug/ml)+YDE-011 0.001 uM • 27. PBMC+LPS (5 ug/ml)+YDE-043 100 uM • 28. PBMC+LPS (5 ug/ml)+YDE-043 10 uM • 29. PBMC+LPS (5 ug/ml)+YDE-043 1 uM • 30. PBMC+LPS (5 ug/ml)+YDE-043 0.1 uM • 31. PBMC+LPS (5 ug/ml)+YDE-043 0.01 uM • 32. PBMC+LPS (5 ug/ml)+YDE-043 0.001 uM
(§3) Multiplex assay was used to measure 30 cytokines and chemokines. The 1:2, 1:10 and 1:200 diluted cell supernatant and serial dilution of the standard were dispensed into a 96 well plate at 50 ul/well. Then, the pre-mixed cocktail of antibody-coated magnetic beads was dispensed at 50 ul/well and incubated at room temperature for 2 h in a horizontal orbital microplate shaker at 800±500 rpm. The beads were washed using a magnetic device to prevent loss. The biotin-antibody was dispensed in 50 ul of each well and incubated at room temperature for 1 h in a shaker at 800±500 rpm. After washing, streptavidin-PE was added at 50 ul/well and incubated at room temperature for 30 min in a shaker under the same conditions. Finally, after washing, wash buffer (100 ul/well) was added to the plate and incubated in a shaker for 2 min. The Luminex™ 200 setting were set according to the manufacturer's protocol. The data was calculated with a standard five-parameter logistic nonlinear regression analysis of the data (xPonent software 4.2, USA). The levels of cytokine/chemokine are normalized to the live cell counts (1×10^5 cells/mL) and presented as concentrations per mL (pg/mL or ng/mL).

IL-17A = assay: Example 9 Luminex, LPS hPBMCs: IL-17A; assay type: cell-based, human
Protocol: as §1, §2, §3

[1] = PBMC + LPS(5 ug/ml) + test article 0.001 uM, Mean
[2] = PBMC + LPS(5 ug/ml) + test article 0.001 uM, individual replicates (1st, 2nd, 3rd)
[3] = PBMC + LPS(5 ug/ml) + test article 0.01 uM, Mean
[4] = PBMC + LPS(5 ug/ml) + test article 0.01 uM, individual replicates (1st, 2nd, 3rd)
[5] = PBMC + LPS(5 ug/ml) + test article 0.1 uM, Mean
[6] = PBMC + LPS(5 ug/ml) + test article 0.1 uM, individual replicates (1st, 2nd, 3rd)
[7] = PBMC + LPS(5 ug/ml) + test article 1 uM, Mean
[8] = PBMC + LPS(5 ug/ml) + test article 1 uM, individual replicates (1st, 2nd, 3rd)
[9] = PBMC + LPS(5 ug/ml) + test article 10 uM, Mean
[10] = PBMC + LPS(5 ug/ml) + test article 10 uM, individual replicates (1st, 2nd, 3rd)
[11] = PBMC + LPS(5 ug/ml) + test article 100 uM, Mean
[12] = PBMC + LPS(5 ug/ml) + test article 100 uM, individual replicates (1st, 2nd, 3rd)
[13] = PBMC + LPS(5 ug/ml) + test article 0.001 uM, single replicates (1st, 2nd, 3rd)
[14] = PBMC + LPS(5 ug/ml) + test article 0.01 uM, single replicates (1st, 2nd, 3rd)
[15] = PBMC + LPS(5 ug/ml) + test article 0.1 uM, single replicates (1st, 2nd, 3rd)
[16] = PBMC + LPS(5 ug/ml) + test article 1 uM, single replicates (1st, 2nd, 3rd)
[17] = PBMC + LPS(5 ug/ml) + test article 10 uM, single replicates (1st, 2nd, 3rd)
[18] = PBMC + LPS(5 ug/ml) + test article 100 uM, single replicates (1st, 2nd, 3rd)

With `CC(C)C[C@H](NC(=O)[C@H](CCC(N)=O)NC(=O)CNC(=O)[C@@H]1C[C@@H](O)CN1)C(=O)NCC(=O)O` [YDE-043] (H-[Hyp]GQLG-OH; N-terminus and C-terminus assumed) the “TNF-alpha Concentration” value (TNF-alpha; [1]) was 1325.0 pg/mL, the TNF-alpha conc/live cell (TNF-alpha; [1]) was 268.4 pg/10^5 and the “TNF-alpha Concentration” value (TNF-alpha; [2]) was 1248.3 pg/mL and 1405.1 pg/mL and 1321.4 pg/mL. The TNF-alpha conc/live cell (TNF-alpha; [2]) was 283.7 pg/10^5 and 234.2 pg/10^5 and 287.3 pg/10^5, the “TNF-alpha Concentration” value (TNF-alpha; [3]) was 1327.4 pg/mL and the TNF-alpha conc/live cell (TNF-alpha; [3]) was 253.6 pg/10^5. The “TNF-alpha Concentration” value (TNF-alpha; [4]) was 1282.6 pg/mL and 1322.9 pg/mL and 1376.7 pg/mL, the TNF-alpha conc/live cell (TNF-alpha; [4]) was 285.0 pg/10^5 and 200.4 pg/10^5 and 275.3 pg/10^5 and the “TNF-alpha Concentration” value (TNF-alpha; [5]) was 1319.0 pg/mL. The TNF-alpha conc/live cell (TNF-alpha; [5]) was 244.5 pg/10^5, the “TNF-alpha Concentration” value (TNF-alpha; [6]) was 1254.3 pg/mL and 1333.4 pg/mL and 1369.2 pg/mL and the TNF-alpha conc/live cell (TNF-alpha; [6]) was 250.9 pg/10^5 and 238.1 pg/10^5 and 244.5 pg/10^5. For the same molecule, the “TNF-alpha Concentration” value (TNF-alpha; [7]) was 1260.8 pg/mL, the TNF-alpha conc/live cell (TNF-alpha; [7]) was 238.1 pg/10^5 and the “TNF-alpha Concentration” value (TNF-alpha; [8]) was 1330.4 pg/mL and 1136.7 pg/mL and 1315.4 pg/mL. For the same molecule, the TNF-alpha conc/live cell (TNF-alpha; [8]) was 229.4 pg/10^5 and 236.8 pg/10^5 and 248.2 pg/10^5, the “TNF-alpha Concentration” value (TNF-alpha; [9]) was 1247.9 pg/mL and the TNF-alpha conc/live cell (TNF-alpha; [9]) was 231.0 pg/10^5. The “TNF-alpha Concentration” value (TNF-alpha; [10]) was 1175.4 pg/mL and 1249.8 pg/mL and 1318.4 pg/mL, the TNF-alpha conc/live cell (TNF-alpha; [10]) was 226.0 pg/10^5 and 231.4 pg/10^5 and 235.4 pg/10^5 and the “TNF-alpha Concentration” value (TNF-alpha; [11]) was 901.5 pg/mL. For the same molecule, the TNF-alpha conc/live cell (TNF-alpha; [11]) was 143.3 pg/10^5, the “TNF-alpha Concentration” value (TNF-alpha; [12]) was 956.0 pg/mL and 847.0 pg/mL and the TNF-alpha conc/live cell (TNF-alpha; [12]) was 154.2 pg/10^5 and 132.4 pg/10^5. For the same molecule, the “Concentration, IL-17A” value (IL-17A; [1]) was 1.0 pg/mL, the “MFI, Bead name: IL-17A” value (IL-17A; [1]) was 0.2 and the “conc/live cell, IL-17A” value (IL-17A; [1]) was 0.2 pg/10^5. For the same molecule, the “Concentration, IL-17A” value (IL-17A; [13]) was 1.0 pg/mL, the “MFI, Bead name: IL-17A” value (IL-17A; [13]) was 0.5 (2×) and −0.5 and the “conc/live cell, IL-17A” value (IL-17A; [13]) was 0.2 pg/10^5 (2×) and 0.0 pg/10^5. The “Concentration, IL-17A” value (IL-17A; [3]) was 1.0 pg/mL, the “MFI, Bead name: IL-17A” value (IL-17A; [3]) was 0.5 and the “conc/live cell, IL-17A” value (IL-17A; [3]) was 0.2 pg/10^5. For the same molecule, the “Concentration, IL-17A” value (IL-17A; [14]) was 1.0 pg/mL, the “MFI, Bead name: IL-17A” value (IL-17A; [14]) was 0.5 and the “conc/live cell, IL-17A” value (IL-17A; [14]) was 0.2 pg/10^5. The “Concentration, IL-17A” value (IL-17A; [5]) was 1.6 pg/mL, the “MFI, Bead name: IL-17A” value (IL-17A; [5]) was 0.8 and the “conc/live cell, IL-17A” value (IL-17A; [5]) was 0.3 pg/10^5. For the same molecule, the “Concentration, IL-17A” value (IL-17A; [15]) was 2.7 pg/ml and 1.0 pg/ml (2×), the “MFI, Bead name: IL-17A” value (IL-17A; [15]) was 1.5 and 0.5 (2×) and the “conc/live cell, IL-17A” value (IL-17A; [15]) was 0.5 pg/10^5 and 0.2 pg/10^5 (2×). For the same molecule, the “Concentration, IL-17A” value (IL-17A; [7]) was 1.9 pg/mL, the “MFI, Bead name: IL-17A” value (IL-17A; [7]) was 0.5 and the “conc/live cell, IL-17A” value (IL-17A; [7]) was 0.2 pg/10^5. The “Concentration, IL-17A” value (IL-17A; [16]) was 1.0 pg/mL and 2.7 pg/mL, the “MFI, Bead name: IL-17A” value (IL-17A; [16]) was 0.5 and −0.5 and 1.5 and the “conc/live cell, IL-17A” value (IL-17A; [16]) was 0.2 pg/10^5 and 0.0 pg/10^5 and 0.5 pg/10^5. The “Concentration, IL-17A” value (IL-17A; [9]) was 1.3 pg/mL, the “MFI, Bead name: IL-17A” value (IL-17A; [9]) was 0.7 and the “conc/live cell, IL-17A” value (IL-17A; [9]) was 0.2 pg/10^5. The “Concentration, IL-17A” value (IL-17A; [17]) was 0.1 pg/mL and 2.7 pg/mL and 1.0 pg/mL, the “MFI, Bead name: IL-17A” value (IL-17A; [17]) was 0.0 and 1.5 and 0.5 and the “conc/live cell, IL-17A” value (IL-17A; [17]) was 0.0 pg/10^5 and 0.5 pg/10^5 and 0.2 pg/10^5. The “MFI, Bead name: IL-17A” value (IL-17A; [11]) was −0.5, the “conc/live cell, IL-17A” value (IL-17A; [11]) was 0.0 pg/10^5 and the “MFI, Bead name: IL-17A” value (IL-17A; [18]) was −0.5. For the same molecule, the “conc/live cell, IL-17A” value (IL-17A; [18]) was 0.0 pg/10^5.
